Here are results for two molecules from patent US10519148B2, “Acrylic acid derivative, preparation method and use in medicine thereof” (Zhejiang Hisun Pharmaceutical Co., Ltd., priority 2015, dated 2019).

What is called IC50 is the concentration that gives 50% inhibition.

Test [1] concerns the target T1, recombinant human estrogen receptor ERα ligand binding domain (Homo sapiens, UniProt P03372).
T1 construct: purchased Invitrogen PV4543
T1 sequence (P03372 311-547 limits assumed): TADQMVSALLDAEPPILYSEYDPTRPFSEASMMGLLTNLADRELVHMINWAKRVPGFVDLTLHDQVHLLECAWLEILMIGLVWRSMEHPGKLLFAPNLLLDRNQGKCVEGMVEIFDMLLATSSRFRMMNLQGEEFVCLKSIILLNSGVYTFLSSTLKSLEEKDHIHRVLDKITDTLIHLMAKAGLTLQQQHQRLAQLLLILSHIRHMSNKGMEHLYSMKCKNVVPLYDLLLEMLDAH
Description: LanthaScreen TR-FRET competition binding assay with estrogen receptor ERα ligand binding domain. Conditions: TR-FRET competition with Fluormone ES2, ERα-LBD (GST); read-out: IC50 (nM) ER Reporter. The source says:
The present invention utilizes the Lantha Screen™ Time-resolved Fluorescence Resonance Energy Transfer (TR-FRET) to assess the ability of the compounds to bind to the isolated ligand domain of estrogen receptor Era in competition assay. The fluorophore (Fluormone ES2, product code P2645) and the recombinant human estrogen receptor ERα ligand binding domain (product code PV4543) using in the TR-FRET were purchased from Invitrogen. The design principle of this assay is as follows: the estrogen receptor ERα-LBD (GST) and the fluorophore-containing ligand form a receptor/fluorophore complex, followed by the addition of terbium (Tb)-labeled anti-GST antibody (product code PV3551), the indirect labeling of the receptor is achieved by the linkage with the GST on the receptor, and the ability of competitive coordination between the test compound and the fluorescent ligand with the receptor is evaluated by detecting the attenuation of the TR-FRET effect between the chromophore (Tb-anti-GST antibody) on the fluorescent label ERα and the fluorescent ligand (Fluormone ES2). We used the following sample preparation and test methods for the test of the synthesized compounds. The instrument we used is Beckman Coulter BioPAPTR FRD microfluidic workstation.
(1) Acoustic dispense 120 nL of the test compound into a black low volume 384 well assay plates;
(2) Preparation of 1×ERα-LBD/Tb-anti-GST antibody complex in ES2 buffer and incubation therein for 20 minutes;
(3) The 1×ES2 was further added to the above ERα-LBD/Tb-anti-GST antibody complex solution before the test;
(4) 12 μL of the ERα-LBD/Tb-anti-GST antibody complex solution prepared in step 3 was added to the wells of the assay plate;
(5) The plates were shielded from light and incubated at room temperature for one hour; (6) At 337 nm excitation light, the emission light at 490 nm and 520 nm was detected by BMG Phera STAR.
The test compounds of a series of concentrations (10 mM, 0.1 mM, 1 μM and 10 nM) prepared on a microplate were transferred to the analytical plate using Labcyte Echo 550. 120 nL of DMSO solution for each test compound was added to each well of the assay plate and tested at 12 different concentrations (100, 29.17, 10.42, 2.083, 1, 0.292, 0.104, 0.02083, 0.01, 0.0029, 0.00104, 0.001 μM). The TR-FRET primitive fluorescence data was used to obtain the fitting curve software such as Origin or Genedata. Half maximal inhibitory concentration IC50 of each compound was used to characterize the competitive binding ability of the test compound with the estrogen receptor ERα. IC50 represents the concentration of the test compound that was calculated when the coordination of the tracer fluorophore (ES2) with the estrogen receptor was reduced by 50%, and the IC50 was determined as shown in Table 3.
(Time-resolved FRET reads energy transfer from a long-lived donor to a nearby acceptor.)

Test [2] concerns MCF-7 carcinoma xenografts. Briefly: Tumor growth inhibition in SCID mice bearing MCF-7 carcinoma xenografts. In kind it is in vivo. Conditions: for TGI (%) Day 4: Day 4, MCF-7 tumor bearing SCID mice; for TGI (%) Day 7: Day 7, MCF-7 tumor bearing SCID mice; for TGI (%) Day 11: Day 11, MCF-7 tumor bearing SCID mice; for TGI (%) Day 14: Day 14, MCF-7 tumor bearing SCID mice; for TGI (%) Day 18: Day 18, MCF-7 tumor bearing SCID mice; for TGI (%) Day 21: Day 21, MCF-7 tumor bearing SCID mice; for effect on tumor growth inhibition in human breast cancer MCF-7 bearing mice (in words): doses of 30 mg/kg and 50 mg/kg, within 21 days. The procedure: 1. Purpose of the Experiment
This test was used to evaluate the inhibitory effect of the test compounds, which were orally administered daily for 21 days, on the growth of transplanted tumor in MCF-7 tumor-bearing SCID mice.
2. Preparation of the Test Substance
Solvent: 20% PEG400, 80% deionized water;
Preparation of the test compounds: an appropriate amount of the test compounds were weighed, dissolved in PEG400 (20%), and then 80% amount of the sterilized deionized water was added, shocked evenly. The test compounds were freshly prepared daily before administration.
Varieties and strains: SCID mice, SPF, female, 7 to 9 weeks old (16 to 22 grams), 100 mice, purchased from Beijing Huafu kang Biotechnology Co., Ltd., 100 mice with good health were used for the experiment, with the environment adaption time of 5 to 7 days.
4. MCF-7 Tumor Cell Culture
MCF-7 cells were cultured in RPMI1640 medium containing 10% fetal bovine serum, cultured in 37° C., 5% CO2 incubator. Cells in logarithmic phase were taken before inoculating, digested with 0.25% trypsin, and then the cells were washed with PBS, resuspended in medium without serum and counted. The cell concentration was adjusted to 7.5×10^7 cells/mL (1:1 Matrigel, Extracellular Matrix Proteins, 356234, BD).
5. Animal Inoculation and Grouping
Each mouse was inoculated subcutaneously in the right axilla with 0.2 mL cell suspension (1.5×10^7 cells/mouse) under aseptic conditions. Estrogen was administrated subcutaneously after inoculation. When the tumor grows to volume of about 150-250 mm^3, the mice with similar tumor volume and good tumor shape were selected (shape to be a single spherical as much as possible, no irregular shape or multiple tumors together), 10 mice per group.
6. Animal Administration and Observation
The formation of tumor in the inoculated part of each group of animals was observed. The long diameter (Y) and the short diameter (X) of the tumor nodules were measured with a vernier caliper twice a week and calculated according to the following formula: The volume of tumor nodules (V): V=(X^2Y)/2.
Evaluation index of antitumor activity: tumor growth inhibition rate TGI (%), relative tumor proliferation rate T/C (%). • Tumor growth inhibition rate TGI (%): TGI (%)=(Vc−Vt)/Vc×100. Where Vc is the tumor volume of the model control group and Vt is the tumor volume of the compound group.
Relative tumor volume (RTV): RTV=Vn/V0. Where V0 is the tumor volume just before the first time administered, and Vn is the tumor volume at the time of measurement.
Relative tumor proliferation rate: T/C (%): T/C (%)=TRTV/CRTV×100. Where, TRTV was RTV of the treatment group and CRTV was RTV of negative control group.
For orientation: In xenograft studies the graft and the host belong to different species.

`C[C@@H]1Cc2c([nH]c3cccc(F)c23)[C@@H](c2c(F)cc(/C=C/C(=O)O)cc2F)N1CC1(F)CC1` [Example 12, (E)-3-(3,5-difluoro-4-((1R,3R)-5-fluoro-2-((1-fluorocyclopropyl)methyl)-3-methyl-2,3,4,9-tetrahydro-1H-pyrido[3,4-b]indol-1-yl)phenyl)acrylic acid]: the 50% inhibitory concentration (IC50) in test [1] was 0.1 to 10 nM. In addition, in test [2] (30 mg/kg po qd), the “TGI (%) Day 4” value came to 12.1%, the “TGI (%) Day 7” value is reported as 25.9%, the “TGI (%) Day 11” value stood at 41.5% and the “TGI (%) Day 14” value came to 53.6%. In test [2] (30 mg/kg po qd), the “TGI (%) Day 18” value came to 62.0% and the “TGI (%) Day 21” value turned out to be 73.4%. Further, in test [2] (50 mg/kg po qd), the “TGI (%) Day 4” value was determined as 12.4%, the “TGI (%) Day 7” value came out at 25.4%, the “TGI (%) Day 11” value is recorded as 43.8% and the “TGI (%) Day 14” value came to 59.6%. Also, in test [2] (50 mg/kg po qd), the “TGI (%) Day 18” value was 69.8% and the “TGI (%) Day 21” value came out at 79.4%. Further, the “effect on tumor growth inhibition in human breast cancer MCF-7 bearing mice (in words)” value in test [2] is given as “significant effect on tumor growth inhibition”.
As for `C[C@@H]1Cc2c([nH]c3ccccc23)[C@@H](c2c(F)cc(/C=C/C(=O)O)cc2F)N1CC1(F)CC1` [Example 1, (E)-3-(3,5-difluoro-4-((1R,3R)-2-((1-fluorocyclopropyl)methyl)-3-methyl-2,3,4,9-tetrahydro-1H-pyrido[3,4-b]indol-1-yl)phenyl)acrylic acid], the IC50 in test [1] is 0.1 to 10 nM. In test [2] (30 mg/kg po qd), the “TGI (%) Day 4” value amounted to 12.3%, the “TGI (%) Day 7” value stood at 24.4%, the “TGI (%) Day 11” value worked out at 34.5% and the “TGI (%) Day 14” value came to 52.7%. In test [2] (30 mg/kg po qd), the “TGI (%) Day 18” value was determined as 65.7% and the “TGI (%) Day 21” value is 76.7%. Moreover, in test [2] (50 mg/kg po qd), the “TGI (%) Day 4” value is given as 16.9%, the “TGI (%) Day 7” value is listed as 26.5%, the “TGI (%) Day 11” value was determined as 38.8% and the “TGI (%) Day 14” value came out at 54.2%. In test [2] (50 mg/kg po qd), the “TGI (%) Day 18” value is 66.9% and the “TGI (%) Day 21” value came out at 78.8%. For the same molecule, the “effect on tumor growth inhibition in human breast cancer MCF-7 bearing mice (in words)” value in test [2] was “significant effect on tumor growth inhibition”.
